These results are taken from paper PMC12502323, “Discovery of small molecules with anthelmintic potential in the Medicines for Malaria Venture’s COVID and Global Health Priority Boxes using an infrared-based assay for Caenorhabditis elegans motility” (BMC Research Notes, 2025).

“And” between values parts separate entries of the source, which are not always exact repeats. Identical values can stand only once. Like-named read-outs stand apart in the source and are kept apart here.

For data set [1], the system named is Caenorhabditis elegans. As to the kind of experiment: Primary screen, infrared-based (WMicroTracker ONE) C. elegans L4 motility assay at 40 µM. To be noted: primary screen at 40 µM; for C. elegans Mean motility vs. DMSO control (%): C. elegans L4; for C. elegans NOTES (HIT): hit if motility < 25%. Type of data set: cell-based, Caenorhabditis elegans (Bristol N2). On the procedure: (§1) Methods to cultivate C. elegans (Bristol N2) and synchronize growth to the L4 stage were as described. WMicroTracker ONE (Phylumtech, Argentina) detects movement by measuring the scattering of infrared light beams that are projected into each well of a microtiter plate (two 880 nm beams/well in a 96w plate).
(§2) Synchronized C. elegans L4 were detached from agar and collected in M9 buffer. Worms were centrifuged for 1 min at 1,900 g and washed in S medium to decrease the concentration of E. coli OP50 that might interfere with infrared detection. Control and assay compounds (1 µL) in DMSO (Fisher Scientific, Cat# BP231-100) were spotted into each well of a clear, flat-bottomed 96-well polystyrene plate (Fisherbrand, Cat# FB012931). DMSO (1%) was used as the negative control. Approximately 70 L4 in 100 µL S medium were added per well. First pass screens employed 40 µM compound, and motility was measured every 20 min for 24 h in the WMicroTracker ONE reader in which the temperature was 25 ± 1 °C. Motility was normalized relative to the DMSO controls. Hits were defined as compounds that decreased motility to ≤ 25% of that in DMSO control worms.

Data set [2] concerns Caenorhabditis elegans. As to the kind of experiment: Concentration response C. elegans L4 motility assay (WMicroTracker ONE), EC50. To be noted: read-out: EC50 (motility). In kind it is cell-based, Caenorhabditis elegans (Bristol N2). On the procedure: as §1, §2
For potent compounds, concentration response assays (nine concentrations: 0.005 µM to 40 or 100 µM) were conducted to measure the half-maximal effective concentration (EC50). Compounds were serially diluted in DMSO using 96-well, v-bottomed polypropylene dilution plates (ThermoFisher Scientific, Cat#: 249944) and 1 µL aliquots spotted into each well of the assay plates. Motility was measured as described above. Prism GraphPad, Version 8.0 (GraphPad Software, San Diego, CA) was used to calculate EC50 values using a non-linear sigmoidal four parameter logistic curve.

Data set [3] relates to C. elegans. The conditions noted are these: read-out: EC50 previously recorded, cited from earlier work.
A short description of data set [4]: HEK293 cytotoxicity assay (resazurin). Type of data set: cell-based, Human. The conditions noted are these: human, HEK293 cell viability after 48 h, read-out: CC50. On the procedure: (§3) Potent compounds were also evaluated for cytotoxicity against HEK293 cells. Cells were cultured at 37 °C and 5% in Dulbecco’s Modified Eagle Medium (DMEM; Gibco, Cat#: 11965-092) containing 10% heat-inactivated fetal bovine serum (FBS; Omega Scientific Inc., Cat#: FB02) and 1% penicillin-streptomycin (ThermoFisher Scientific, Cat#: 15140122), and then sub-cultured when 60–80% confluent. Cells were detached with 0.05% trypsin/EDTA (ThermoFisher Scientific, Cat#: 25300054) and centrifuged for 5 min at 1,900 g.
(§4) Screens were performed over 11 compound concentrations (0.00007–40 µM) that had been prepared in DMSO. Aliquots (1 µL) were spotted into each well of a clear-bottomed, 96-well, polystyrene assay plate (Fisher Scientific, Cat#: FB012931). Approximately 20,000 HEK293 cells in 99 µL of the above supplemented DMEM were then added to each well. After 46 h at 37 °C and 5% CO2, 20 µL 0.5 mM resazurin (ThermoFisher Scientific, Cat#: B21187.03) were added and the incubation continued for 2 h at 37 °C [27]. Fluorescence was measured in a 2104 EnVision Multilabel Plate Reader (PerkinElmer) at 560 and 590 nm excitation and emission wavelengths, respectively. Raw data were exported from the EnVision Workstation software (version 1.13.3009.1401; PerkinElmer) into Prism GraphPad, and the half-maximal cytotoxic concentration (CC50) values were calculated using a non-linear regression curve.

Data set [5] concerns HEK293 cells. The data set can be described thus: HEK293 cytotoxicity assay (resazurin). Type of data set: cell-based, Human. On the procedure: as §3, §4
The test system of data set [6] is C. elegans L4. Details: method as in PMID 38486232. The conditions noted are these: GHPB screen, WMicroTracker ONE; cited from earlier work.
Data set [7] has as its system Haemonchus contortus. Also noted: method as in PMID 38486232. The conditions noted are these: GHPB screen, WMicroTracker ONE; cited from earlier work.
[8] abbreviates: Caenorhabditis elegans, C. elegans L4, after 12 h.

As a reminder, the EC50 is the midpoint of the concentration-response curve. Turning to ivermectin [reference compound], the “C. elegans Mean motility vs. DMSO control (%)” value in data set [1] (listed as MMV672931) is 3.37% and 9.96%. For the same compound, the “C. elegans NOTES (HIT)” value in data set [1] is listed as “HIT”. The EC50 is 130 ± 51 nM in data set [2] (C. elegans L4, after 1 h) and 190 ± 10 nM in data set [3] (after 90 min).

A word on the CC50: it is the concentration that lowers cell viability or growth by half. `COc1ccc2c(c1)c(CC(=O)O)c(C)n2C(=O)c1ccc(Cl)cc1` [indomethacin, reference compound]: in data set [1], the “C. elegans Mean motility vs. DMSO control (%)” value came out at 18.64% and the “C. elegans NOTES (HIT)” value is “HIT”. The concentration giving a half-maximal response (EC50) in data set [2] (Caenorhabditis elegans, C. elegans L4, after 24 h) was 23200 ± 14100 nM. In data set [4] (HEK293 cells), the 50% cytotoxic concentration (CC50) at 48 h was > 100000 nM. In data set [5] (HEK293 cells), the “cytotoxicity to HEK293 cells (in words)” value is listed as “not cytotoxic”.

Take `CO[C@H]1C[C@H](O[C@@H]2/C(C)=C/C[C@@H]3C[C@@H](C[C@]4(CC[C@H](C)[C@@H](C5CCCCC5)O4)O3)OC(=O)[C@@H]3C=C(C)/C(=N/O)[C@H]4OC/C(=C\C=C\[C@@H]2C)[C@]43O)O[C@@H](C)[C@@H]1O` [selamectin, reference compound]: in data set [1], the “C. elegans Mean motility vs. DMSO control (%)” value was determined as 2.31% and the “C. elegans NOTES (HIT)” value was “HIT”. The concentration giving a half-maximal response (EC50) in data set [2] (Caenorhabditis elegans, C. elegans L4, after 3 h) was 722 ± 555 nM. Further, in data set [4], the half-maximal cytotoxic concentration (CC50) at 48 h was found to be 9880 ± 4260 nM.

Take `O=C(Nc1ccc(Cl)c(C(F)(F)F)c1)Nc1ccc(Cl)c(C(F)(F)F)c1` [flucofuron]: in data set [1], the “C. elegans Mean motility vs. DMSO control (%)” value is given as 20.31% and the “C. elegans NOTES (HIT)” value is listed as “HIT”. The EC50 in data set [2] (C. elegans L4, after 24 h) worked out at 20600 ± 10700 nM. The compound also gave a 50% cytotoxic concentration (CC50) in data set [5] (HEK293 cell viability after 48 h) of 453 ± 331 nM. The “hit in screen against C. elegans L4” value in data set [6] was “hit only against the parasite”. For the same compound, in data set [7], the “hit in screen against exsheathed L3 of Haemonchus contortus” value is reported as “hit”.

`CC(F)c1ncnc(NCCc2ccc(OC(F)(F)F)cc2)c1Cl` (stereo not drawn) [flufenerim]: in data set [1], the “C. elegans Mean motility vs. DMSO control (%)” value amounted to 0.26% and the “C. elegans NOTES (HIT)” value was “HIT”. In data set [2] (C. elegans L4, after 12 h), the EC50 was found to be 211 ± 34 nM. Moreover, the “hit in screen against C. elegans L4” value in data set [6] is listed as “hit”. Besides, the “hit in screen against exsheathed L3 of Haemonchus contortus” value in data set [7] was “hit”.

With `CCc1nn(C)c(C(=O)NCc2ccc(Oc3ccc(C)cc3)cc2)c1Cl` [tolfenpyrad], in data set [1], the “C. elegans Mean motility vs. DMSO control (%)” value was determined as 0.26% and the “C. elegans NOTES (HIT)” value is “HIT”. The 50% effective concentration (EC50) in data set [2] (setting [8]) was 950 ± 256 nM. Further, the cytotoxic concentration (CC50) at 48 h in data set [4] was 33800 ± 31400 nM. In addition, the 50% effective concentration (EC50) in data set [3] (after 24 h) was 200 ± 40 nM.

As to `CCOCn1c(-c2ccc(Cl)cc2)c(C#N)c(Br)c1C(F)(F)F` [chlorfenapyr], in data set [1], the “C. elegans Mean motility vs. DMSO control (%)” value is listed as 0.26% and the “C. elegans NOTES (HIT)” value is “HIT”. Moreover, in data set [2] (setting [8]), the EC50 was 1650 ± 449 nM. Besides, the CC50 at 48 h in data set [4] is 20900 ± 7340 nM.
